Tests used:
[1] = test system: MOLT-4 cells; experiment: MOLT-4 Cell Proliferation Assay (CellTiter-Glo); type: cell-based; conditions: Homo sapiens, 72 h, read-out: MOLT-4 CTG IC50
Summary of the method: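 MOLT-4 cells at 50,000/well in serum-supplemented medium received a 10-point 1:3 dilution series (top 10 μM final, 0.1% DMSO) in duplicate for 72 h at 37 °C. Viability was read as CellTiter-Glo luminescence, and IC50 came from nonlinear regression.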

[2] = biological target: T1, Bcl-xL (Homo sapiens, UniProt Q07817); experiment: Protein Degradation Assay in MOLT-4 Cells (Western blot); type: cell-based; conditions: for BCL-xL degradation in MOLT-4 cells: 50 nM compound, 16 hours, FIGS. 7 and 8; for BCL-xL degradation in MOLT-4 cells, dose dependence: FIG. 9; for Bcl-xL degradation with proteasome inhibitor MG132: MOLT-4 cells pretreated with 1 μM MG132 for 1 hour, then 100 nM compound for 16 h, FIG. 10
T1 construct: endogenous in cells; host or cells: MOLT-4 (ATCC CRL-1582)
Protocol: MOLT-4 (ATCC, CRL-1582) (FIGS. 7,8) were incubated with vehicle or 50 nM concentrations of the indicated compounds for 16 hours. For proteasome inhibition, MOLT-4 cells (250,000 cells/well) were pretreated with 1 μM of MG132 for 1 hour before the addition of 100 nM of the indicated compounds for 16 h. After treatment, the cells were harvested in RIPA lysis buffer supplemented with 1% Phosphatase Inhibitor and Protease Inhibitor Cocktail. An equal amount of protein (10 μg/lane) from each cell extract was resolved on a 4-12% Bis-Tris gel. Proteins were transferred using iBlot 2 Transfer Stacks. The membranes were blocked with 5% nonfat milk in TBS-T buffer (50 mM Tris-HCL, pH 7.6; 150 mM NaCl; and 0.05% Tween) and probed with primary antibodies (1:1000 dilution) overnight at 4° C. After three washes with TBS-T (10 min/wash), the membranes were incubated with an appropriate peroxidase-conjugated secondary antibody (Cell Signaling Technology, USA) for 1 hour at rt. After three washes with TBS-T, the proteins of interest were detected with ECL Western Blotting Detection Reagents and captured with an Azure imaging system. The band intensities were determined using ImageJ software and normalized to loading control β-actin or GAPDH. The primary antibodies Bcl-xL (#2762), Bcl-2 (#2872s), and GAPDH (#5174) were purchased from Cell Signaling Technology.

T1 sequence (Q07817 whole entry): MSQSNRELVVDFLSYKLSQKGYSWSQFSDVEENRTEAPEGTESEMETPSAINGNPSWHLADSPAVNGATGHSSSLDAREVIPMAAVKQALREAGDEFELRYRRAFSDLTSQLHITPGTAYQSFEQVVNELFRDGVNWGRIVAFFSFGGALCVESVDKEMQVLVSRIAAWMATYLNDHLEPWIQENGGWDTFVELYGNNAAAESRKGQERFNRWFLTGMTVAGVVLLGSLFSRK

| Compound | IC50 [1] [nM] | BCL-xL degradation in MOLT-4 cells [2] | BCL-xL degradation in MOLT-4 cells, dose dependence [2] | Bcl-xL degradation with proteasome inhibitor MG132 [2] |
| --- | --- | --- | --- | --- |
| Cc1ncsc1-c1ccc([C@H](C)NC(=O)[C@@H]2C[C@@H](O)CN2C(=O)[C@@H](NC(=O)CCCCCCCN(C)CC[C@H](CSc2ccccc2)Nc2ccc(S(=O)(=O)NC(=O)c3ccc(N4CCN(CC5=C(C67CC(C(F)F)(C6)C7)CC(C)(C)CC5)CC4)cc3)cc2S(=O)(=O)C(F)(F)F)C(C)(C)C)cc1 [Example 28, (2S,4R)-1-((S)-2-(8-(((R)-3-((4-(N-(4-(4-((2-(3-(difluoromethyl)bicyclo[1.1.1]pentan-1-yl)-4,4-dimethylcyclohex-1-en-1-yl)methyl)piperazin-1-yl)benzoyl)sulfamoyl)-2-((trifluoromethyl)sulfonyl)phenyl)amino)-4-(phenylthio)butyl)(methyl)amino)octanamido)-3,3-dimethylbutanoyl)-4-hydroxy-N—((S)-1-(4-(4-methylthiazol-5-yl)phenyl)ethyl)pyrrolidine-2-carboxamide] | 50 to 150 | induce BCL-xL degradation | – | – |
| Cc1ncsc1-c1ccc([C@H](C)NC(=O)[C@@H]2C[C@@H](O)CN2C(=O)[C@@H](NC(=O)CCCCCCCC(=O)N2CCN(CC[C@H](CSc3ccccc3)Nc3ccc(S(=O)(=O)NC(=O)c4ccc(N5CCN(CC6=C(C78CC(C)(C7)C8)CC(C)(C)CC6)CC5)cc4)cc3S(=O)(=O)C(F)(F)F)CC2)C(C)(C)C)cc1 [Example 24, (2S,4R)-1-((S)-2-(9-(4-((R)-3-((4-(N-(4-(4-((4,4-dimethyl-2-(3-methylbicyclo[1.1.1]pentan-1-yl)cyclohex-1-en-1-yl)methyl)piperazin-1-yl)benzoyl)sulfamoyl)-2-((trifluoromethyl)sulfonyl)phenyl)amino)-4-(phenylthio)butyl)piperazin-1-yl)-9-oxononanamido)-3,3-dimethylbutanoyl)-4-hydroxy-N—((S)-1-(4-(4-methylthiazol-5-yl)phenyl)ethyl)pyrrolidine-2-carboxamide] | 50 to 150 | induce BCL-xL degradation | – | – |
| Cc1ncsc1-c1ccc([C@H](C)NC(=O)[C@@H]2C[C@@H](O)CN2C(=O)[C@@H](NC(=O)CCCCCCN2CCN(CC[C@H](CSc3ccccc3)Nc3ccc(S(=O)(=O)NC(=O)c4ccc(N5CCN(CC6=C(C78CC(C)(C7)C8)CC(C)(C)CC6)CC5)cc4)cc3S(=O)(=O)C(F)(F)F)CC2)C(C)(C)C)cc1 [Example 25, (2S,4R)-1-((S)-2-(7-(4-((R)-3-((4-(N-(4-(4-((4,4-dimethyl-2-(3-methylbicyclo[1.1.1]pentan-1-yl)cyclohex-1-en-1-yl)methyl)piperazin-1-yl)benzoyl)sulfamoyl)-2-((trifluoromethyl)sulfonyl)phenyl)amino)-4-(phenylthio)butyl)piperazin-1-yl)heptanamido)-3,3-dimethylbutanoyl)-4-hydroxy-N—((S)-1-(4-(4-methylthiazol-5-yl)phenyl)ethyl)pyrrolidine-2-carboxamide] | 50 to 150 | induce BCL-xL degradation | – | – |
| Cc1ncsc1-c1ccc([C@H](C)NC(=O)[C@@H]2C[C@@H](O)CN2C(=O)[C@@H](NC(=O)CCCCCC(=O)N2CCN(CC[C@H](CSc3ccccc3)Nc3ccc(S(=O)(=O)NC(=O)c4ccc(N5CCN(CC6=C(C78CC(C(F)F)(C7)C8)CC(C)(C)CC6)CC5)cc4)cc3S(=O)(=O)C(F)(F)F)CC2)C(C)(C)C)cc1 [Example 6, (2S,4R)-1-((S)-2-(7-(4-((R)-3-((4-(N-(4-(4-((2-(3-(difluoromethyl)bicyclo[1.1.1]pentan-1-yl)-4,4-dimethylcyclohex-1-en-1-yl)methyl)piperazin-1-yl)benzoyl)sulfamoyl)-2-((trifluoromethyl)sulfonyl)phenyl)amino)-4-(phenylthio)butyl)piperazin-1-yl)-7-oxoheptanamido)-3,3-dimethylbutanoyl)-4-hydroxy-N—((S)-1-(4-(4-methylthiazol-5-yl)phenyl)ethyl)pyrrolidine-2-carboxamide] | 50 to 150 | induce BCL-xL degradation | can induce BCL-xL degradation in MOLT-4 cells in a dose dependent manner | can be inhibited by proteasome inhibitor MG132 |
| CC1(C)CCC(CN2CCN(c3ccc(C(=O)NS(=O)(=O)c4ccc(N[C@H](CCN5CCN(CCCC#Cc6ccc7c(c6)CN(C6CCC(=O)NC6=O)C7=O)CC5)CSc5ccccc5)c(S(=O)(=O)C(F)(F)F)c4)cc3)CC2)=C(C23CC(C(F)F)(C2)C3)C1 (stereo partly shown) [Example 30] | ≤ 50 | – | can induce BCL-xL degradation in MOLT-4 cells in a dose dependent manner | can be inhibited by proteasome inhibitor MG132 |
| Cc1ncsc1-c1ccc([C@H](C)NC(=O)[C@@H]2C[C@@H](O)CN2C(=O)[C@@H](NC(=O)CCCCCC(=O)N(C)C2CCN(CC[C@H](CSc3ccccc3)Nc3ccc(S(=O)(=O)NC(=O)c4ccc(N5CCN(CC6=C(C78CC(C(F)F)(C7)C8)CC(C)(C)CC6)CC5)cc4)cc3S(=O)(=O)C(F)(F)F)CC2)C(C)(C)C)cc1 [Example 44, N1-(1-((R)-3-((4-(N-(4-(4-((2-(3-(difluoromethyl)bicyclo[1.1.1]pentan-1-yl)-4,4-dimethylcyclohex-1-en-1-yl)methyl)piperazin-1-yl)benzoyl)sulfamoyl)-2-((trifluoromethyl)sulfonyl)phenyl)amino)-4-(phenylthio)butyl)piperidin-4-yl)-N7-((S)-1-((2S,4R)-4-hydroxy-2-(((S)-1-(4-(4-methylthiazol-5-yl)phenyl)ethyl)carbamoyl)pyrrolidin-1-yl)-3,3-dimethyl-1-oxobutan-2-yl)-N1-methylheptanediamide] | 50 to 150 | induce BCL-xL degradation | – | – |
| Cc1ncsc1-c1ccc([C@H](C)NC(=O)[C@@H]2C[C@@H](O)CN2C(=O)[C@@H](NC(=O)CCCCC(=O)N(C)C2CCN(CC[C@H](CSc3ccccc3)Nc3ccc(S(=O)(=O)NC(=O)c4ccc(N5CCN(CC6=C(C78CC(C(F)F)(C7)C8)CC(C)(C)CC6)CC5)cc4)cc3S(=O)(=O)C(F)(F)F)CC2)C(C)(C)C)cc1 [Example 43, N1-(1-((R)-3-((4-(N-(4-(4-((2-(3-(difluoromethyl)bicyclo[1.1.1]pentan-1-yl)-4,4-dimethylcyclohex-1-en-1-yl)methyl)piperazin-1-yl)benzoyl)sulfamoyl)-2-((trifluoromethyl)sulfonyl)phenyl)amino)-4-(phenylthio)butyl)piperidin-4-yl)-N6-((S)-1-((2S,4R)-4-hydroxy-2-(((S)-1-(4-(4-methylthiazol-5-yl)phenyl)ethyl)carbamoyl)pyrrolidin-1-yl)-3,3-dimethyl-1-oxobutan-2-yl)-N1-methyladipamide] | 50 to 150 | induce BCL-xL degradation | – | – |
| Cc1ncsc1-c1ccc([C@H](C)NC(=O)[C@@H]2C[C@@H](O)CN2C(=O)[C@@H](NC(=O)CCCCCC(=O)N2CCN(CC[C@H](CSc3ccccc3)Nc3ccc(S(=O)(=O)NC(=O)c4ccc(N5CCN(CC6=C(C78CC(C)(C7)C8)CC(C)(C)CC6)CC5)cc4)cc3S(=O)(=O)C(F)(F)F)CC2)C(C)(C)C)cc1 [Example 9, (2S,4R)-1-((S)-2-(7-(4-((R)-3-((4-(N-(4-(4-((4,4-dimethyl-2-(3-methylbicyclo[1.1.1]pentan-1-yl)cyclohex-1-en-1-yl)methyl)piperazin-1-yl)benzoyl)sulfamoyl)-2-((trifluoromethyl)sulfonyl)phenyl)amino)-4-(phenylthio)butyl)piperazin-1-yl)-7-oxoheptanamido)-3,3-dimethylbutanoyl)-4-hydroxy-N—((S)-1-(4-(4-methylthiazol-5-yl)phenyl)ethyl)pyrrolidine-2-carboxamide] | 50 to 150 | induce BCL-xL degradation | – | – |
